Data as given in US10106853B2, “CUL4B as predictive biomarker for cancer treatment” (CORNELL UNIVERSITY, priority 2012, dated 2018).

Legend:
T47D cells = assay: XTT assay for cytotoxic response to camptothecin, T47D; assay type: cell-based, Human
CUL4B-Top1 interaction = target: T1, CUL4B-Top1 interaction (Homo sapiens, UniProt P11387); assay: Co-immunoprecipitation of CUL4B and Top1 in BT474 cells; assay type: cell-based; details: BT474 cells in the presence of CPT, crosslinked
T1 construct: Top1 was co-immunoprecipitated with CUL4B in the presence of CPT; host or cells: BT474 human breast cancer cells
T1 sequence (P11387 2-765 limits assumed): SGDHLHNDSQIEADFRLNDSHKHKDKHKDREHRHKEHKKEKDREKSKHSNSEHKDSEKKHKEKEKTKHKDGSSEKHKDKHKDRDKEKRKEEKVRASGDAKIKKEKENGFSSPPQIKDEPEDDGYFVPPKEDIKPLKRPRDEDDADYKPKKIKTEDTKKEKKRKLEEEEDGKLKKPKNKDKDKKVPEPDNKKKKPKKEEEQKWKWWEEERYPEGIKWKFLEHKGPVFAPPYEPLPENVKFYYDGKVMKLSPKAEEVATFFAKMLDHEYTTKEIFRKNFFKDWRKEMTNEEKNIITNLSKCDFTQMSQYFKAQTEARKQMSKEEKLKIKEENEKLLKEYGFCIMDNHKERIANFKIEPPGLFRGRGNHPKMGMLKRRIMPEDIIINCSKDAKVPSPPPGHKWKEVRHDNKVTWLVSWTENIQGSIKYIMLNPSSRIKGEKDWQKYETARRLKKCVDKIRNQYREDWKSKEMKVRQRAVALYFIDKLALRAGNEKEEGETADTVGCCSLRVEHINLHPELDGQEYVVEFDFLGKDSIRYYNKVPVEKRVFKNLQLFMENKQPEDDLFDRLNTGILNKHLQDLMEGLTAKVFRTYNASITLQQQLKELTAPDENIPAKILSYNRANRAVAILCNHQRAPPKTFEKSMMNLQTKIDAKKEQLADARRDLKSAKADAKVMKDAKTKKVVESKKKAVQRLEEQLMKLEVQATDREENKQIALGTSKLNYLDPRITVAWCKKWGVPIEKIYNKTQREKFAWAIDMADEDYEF
T1 sequence (Q13620 whole entry partner): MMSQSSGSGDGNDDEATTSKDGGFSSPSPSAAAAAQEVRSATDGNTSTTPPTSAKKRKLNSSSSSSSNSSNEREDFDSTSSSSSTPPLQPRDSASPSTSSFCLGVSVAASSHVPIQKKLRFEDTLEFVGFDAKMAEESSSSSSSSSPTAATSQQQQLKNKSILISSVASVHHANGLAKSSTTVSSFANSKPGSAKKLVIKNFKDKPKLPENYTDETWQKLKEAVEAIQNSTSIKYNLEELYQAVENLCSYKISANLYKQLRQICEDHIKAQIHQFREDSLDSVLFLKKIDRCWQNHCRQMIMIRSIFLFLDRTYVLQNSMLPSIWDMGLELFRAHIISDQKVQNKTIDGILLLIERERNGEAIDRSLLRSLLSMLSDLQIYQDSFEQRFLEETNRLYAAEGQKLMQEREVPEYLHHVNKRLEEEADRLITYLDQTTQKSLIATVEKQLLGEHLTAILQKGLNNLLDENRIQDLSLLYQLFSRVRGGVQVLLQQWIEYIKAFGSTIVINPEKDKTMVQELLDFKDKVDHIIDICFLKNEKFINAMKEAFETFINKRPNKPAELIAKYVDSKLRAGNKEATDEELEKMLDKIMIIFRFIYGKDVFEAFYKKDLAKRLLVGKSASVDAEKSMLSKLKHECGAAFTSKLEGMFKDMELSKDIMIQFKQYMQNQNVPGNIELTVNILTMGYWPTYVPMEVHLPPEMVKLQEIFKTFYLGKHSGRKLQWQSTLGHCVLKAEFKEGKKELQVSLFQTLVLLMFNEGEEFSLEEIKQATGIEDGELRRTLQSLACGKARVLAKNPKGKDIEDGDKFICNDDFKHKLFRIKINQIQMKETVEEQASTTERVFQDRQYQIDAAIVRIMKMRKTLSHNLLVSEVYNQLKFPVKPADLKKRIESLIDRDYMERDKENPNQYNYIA
Description: BT474 cells were infected with lentiviral shCUL4B, shCUL4A or control non-targeting shRNA, and selected for stable CUL4B^k/d or CUL4A^k/d cells upon treatment with puromycin. Following treatment with CPT (50 μM) for 1 hour, cells were replenished with CPT-free fresh medium and incubated at 37° C. for 30 minutes. Top1 degradation was assessed by immunoblotting with an anti-Top1 antibody. Levels of α-tubulin were measured as a loading control. B) Association of CUL4B with Top1 following CPT treatment. BT474 cells were treated with proteosome inhibitor MG132 (15 μM) for 3 hours, and were subjected to crosslinking with 0.2 mM Dithiobis[succinimidyl propionate](DSP) for the last 30 min at room temperature. Cell lysates were prepared, and immunoprecipitated with the anti-Top1 or anti-CUL4B antibodies, and then immunoblotted using antibodies against CUL4B or Top1, respectively. […] Top1 degradation was assessed by immunoblotting with the anti-Top1 antibody. Levels of α-tubulin were measured as a loading control. […] Statistical significance in cellular response to CPT between control BT474 cells and CUL4A^k/d or CUL4B^k/d cells were assessed by a two-tailed unpaired student t-test (***: p<0.001). […] Statistical significance in cellular response to camptothecin between control cells and CUL4A^k/d or CUL4B^k/d BT474 cells are assessed by student's t-test. […]

BT474 xenograft tumors = assay type: in vivo, athymic Nu/J nude mice; details: without topotecan administration; tumor burden and excised tumor weight
Description: FIG. 5. CUL4B inactivation sensitized BT474 xenograft tumors to topotecan. Stable TGL-BT474 cells (BT474 cells stably expressing GFP-luciferase reporter) were established by retroviral transduction and FACS sorting. The resulting TGL-BT474 cells were infected with recombinant lentiviruses expressing non-targeting shCtrl, shCUL4A or shCUL4B, followed by selection of infected cells with 4 μg/ml puromycine for one week. A) Knockdown of endogenous CUL4A and 4B were verified by immunoblotting. B, C) 1×10^7 of control, CUL4A^k/d, or CUL4B^k/d TGL-BT474 cells were injected subcutaneously in the right flank of each athymic Nu/J nude mice, treated (i.p.) with toptoecan at a dose of 5 mg/g on every 4th day, and tumor burden was measure by bioluminescent imaging. Statistical significance in tumor burden between control and CUL4A^k/d or CUL4B^k/d xenograph are assessed by a two-tailed unpaired student t-test (***: p<0.001). D) Growth rate of control, CUL4A^k/d and CUL4B^k/d BT474 cells in vitro. The same number of control, CUL4A^k/d and CUL4B^k/d BT474 cells were seeded to 96-well plates and cell proliferation was measured using the XTT Cell Proliferation Assay Kit. The data represent the mean value of fold change of cells. Bars indicate the S.E. of six independent experiments. Statistical significance in cellular rate between control cells and CUL4A^k/d or CUL4B^k/d cells are assessed by student's t-test. E-F) Growth rate of control, CUL4A^k/d and CUL4B^k/d TGL-BT474 xenograft in vivo. 1×10^7 of control, CUL4A^k/d or CUL4B^k/d TGL-BT474 cells were injected subcutaneously in the right flank of each mouse of athymic Nu/J nude mice, and tumor burden was measured by bioluminescent imaging (E). On the 22nd day, tumors were collected, and the weight of exercised tumors was measured after mice were sacrificed (F).
The effect of CUL4B knockdown on an organism's response to CPT treatment was tested in vivo by examining the sensitivity of BT474-CUL4B^k/d, BT474-CUL4A^k/d and control BT474 xenograft tumors to topotecan treatment. Topotecan, (S)-10-[(dimethylamino)methyl]-4-ethyl-4,9-dihydroxy-1H-pyrano[3′,4′:6,7]indolizino[1,2-b]quinoline-3,14(4H,12H)-dione monohydrochloride, is an FDA-approved Top1-directed chemotherapy for the treatment of ovarian, cervical and small cell lung cancer, under the trade name Hycamtin™. Nude mice bearing BT474 xenografts on dorsal skin were treated with topotecan every four (4) days for a period of 44 days. Prior to topotecan administration, the size of the xenograft tumors were identical (FIG. 5). Topotecan was then administered via intraperitoneal injection, and tumor mass was monitors by bioluminescent imaging in four day intervals. […] To rule out the possibility that the growth rate of xenografts were altered during the CUL4B inactivation process (treatment with shRNA) the tumor mass of the three xenograft groups were measured in the absence of topotecan treatment and the weight of the exercised xenograft tumors were analyzed.
Six week old Female athymic Nu/J nude mice were purchased from Jackson Labs. Mice were housed in laminar air-flow cabinets under specific pathogen-free conditions. Nude mice were inoculated with 0.36 mg 60-day-release 17-b-estradiol pellets (Innovative Research) 24 to 48 hours before implantation of BT-474 cells. 1×10^7 BT-474 cells in 50 ul DMEM medium and 300 ul diluted BD Matrigel™ Basement Membrane Matrix (BD Bioscience, Matrix: PBS is 2:1) were injected subcutaneously in the right flank of each mouse. Tumors were detected once every four days by an IVIS Imaging System (Caliper Life Sciences). When tumors were available to be detected, mice were initially treated with topotecan. Topotecan was administered intraperitoneally on every fourth day from the initiation of therapy at doses of 5 mg/g.
The IVIS Imaging System (Caliper life sciences) was used for bioluminescent image acquisition and analysis. […]

Compound	Survival rate of CPT-treated cells (T47D cells; T47D cells with knockdown of CUL4A)	Cytotoxic killing by CPT (cell survival) (T47D cells; T47D cells with knockdown of CUL4B, CPT three days)	Association of Top1 with CUL4B (CUL4B-Top1 interaction)	Growth rate of xenografts vs control (BT474 xenograft tumors)
CC[C@@]1(O)C(=O)OCc2c1cc1n(c2=O)Cc2cc3ccccc3nc2-1 [CPT, (S)-4-ethyl-4-hydroxy-1H-pyrano[3′,4′:6,7]indolizino[1,2-b]quinoline-3,14-(4H, 12H)-dione]	no effect	sensitized	co-immunoprecipitated	–
shCUL4B: lentiviral shRNA CUL4B sequence purchased from Sigma Aldrich, reduces CUL4B expression (CCGGGCAGAATTTAAAGAGGGTAAACTCGAGTTTACCCTCTTTAAATTCTGCTTTTT)	–	–	–	no significant difference
